For this assay, the target named is T1, PDGF-Ra (Homo sapiens, UniProt P16234).
T1 construct: host or cells: G-292 human osteosarcoma cells
In words: Inhibitory activity against PDGF-Ra phosphorylation by PDGF-AA stimulation using G292. Format: cell-based. As to conditions: for IC50: > means inhibition at indicated concentration not more than 50%, < and << not less than 50%, read-out: PDGF (E) IC50; for inhibition at 0.1 µM: G292, at 100 nM, read-out: PDGF (E) inhibition (%) at 100 nM. Put shortly:
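Phosphorylated PDGF-Ra was measured colorimetrically (450 nm) after tyrosine-phosphorylated proteins from G-292 lysates were bound to PY-20-coated wells and detected with anti-PDGF-Ra antibody. Compound preincubation lasted 1 hr, followed by 50 ng/ml PDGF-AA for 5 min.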

Setting [1] is: figure within parentheses in >100( ).
The mark [2] stands for this setting: figure in parentheses in >100( ).

We go through 14 compounds from patent publication US7135466B2 (Kirin Beer Kabushiki Kaisha, priority 1999, dated 2006).

Like-named read-outs stand apart in the source and are kept apart here.

T1 sequence (P16234 24-1089): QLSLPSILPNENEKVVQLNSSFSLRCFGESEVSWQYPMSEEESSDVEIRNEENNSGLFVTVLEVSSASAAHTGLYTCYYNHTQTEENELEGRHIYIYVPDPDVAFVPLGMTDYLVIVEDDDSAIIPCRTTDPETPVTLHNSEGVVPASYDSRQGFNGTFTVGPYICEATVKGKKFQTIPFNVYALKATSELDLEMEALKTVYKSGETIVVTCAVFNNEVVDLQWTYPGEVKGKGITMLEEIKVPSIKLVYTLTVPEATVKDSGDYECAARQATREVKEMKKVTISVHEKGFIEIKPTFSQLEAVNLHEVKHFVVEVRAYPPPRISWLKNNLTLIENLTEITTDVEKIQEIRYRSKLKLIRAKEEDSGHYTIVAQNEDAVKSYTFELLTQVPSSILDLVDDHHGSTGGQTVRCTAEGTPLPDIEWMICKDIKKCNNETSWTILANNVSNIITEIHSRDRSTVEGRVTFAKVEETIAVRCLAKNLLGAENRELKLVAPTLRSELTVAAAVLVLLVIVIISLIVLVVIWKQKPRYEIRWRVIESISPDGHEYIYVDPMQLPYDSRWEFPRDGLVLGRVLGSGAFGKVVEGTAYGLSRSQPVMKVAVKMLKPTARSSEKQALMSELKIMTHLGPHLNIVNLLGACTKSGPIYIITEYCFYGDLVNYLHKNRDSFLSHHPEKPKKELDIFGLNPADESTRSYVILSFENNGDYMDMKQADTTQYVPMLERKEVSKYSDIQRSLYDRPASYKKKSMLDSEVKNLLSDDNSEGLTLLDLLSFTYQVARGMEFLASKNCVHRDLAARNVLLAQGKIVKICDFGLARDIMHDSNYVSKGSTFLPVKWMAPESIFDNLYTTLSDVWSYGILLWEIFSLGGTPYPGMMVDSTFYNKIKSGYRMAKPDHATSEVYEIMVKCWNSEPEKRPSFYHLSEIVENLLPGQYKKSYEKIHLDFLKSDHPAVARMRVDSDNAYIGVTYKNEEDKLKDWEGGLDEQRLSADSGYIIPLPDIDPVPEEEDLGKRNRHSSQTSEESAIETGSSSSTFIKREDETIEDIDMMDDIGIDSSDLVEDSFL

In general, IC50 refers to the concentration at which inhibition is half-maximal. Take `COc1cc2ncnc(Oc3ccc(O)cc3)c2cc1OC` [Example 773, 4-[(6,7-Dimethoxy-4-quinazolinyl)oxy]phenol]: the IC50 is more than 100 nM.

Usually inhibition stands for the change of the read-out against control, counted positive when it falls. Regarding `COC(=O)COc1ccc(Oc2ncnc3cc(OC)c(OC)cc23)cc1` [Example 774, Methyl 2-{4-[(6,7-dimethoxy-4-quinazolinyl)oxy]phenoxy}acetate], the IC50 was more than 100 nM. For the same compound, the inhibition at 0.1 µM under setting [1] is 17%.

Turning to `COc1cc2ncnc(Oc3ccc(OCC(=O)O)cc3)c2cc1OC` [Example 775, 2-{4-[(6,7-Dimethoxy-4-quinazolinyl)oxy]phenoxy}acetic acid], the IC50 is more than 100 nM. Further, under setting [1], the inhibition at 0.1 µM was 22%.

As to `COc1cc2nccc(Oc3ccc(OCCCOc4c(C)cccc4C)cc3)c2cc1OC` [Example 799, 4-{4-[3-(2,6-Dimethylphenoxy)propoxy]phenoxy}-6,7-dimethoxyquinoline], the IC50 amounted to 14 nM.

Turning to `COc1cc2nccc(Oc3ccc(NC(=S)NC(=O)c4ccc(C)cc4C)cc3Cl)c2cc1OC` [Example 1016, N-{3-Chloro-4-[(6,7-dimethoxy-4-quinolyl)oxy]phenyl}-N′-(2,4-dimethylbenzoyl)thiourea], the IC50 is 48 nM.

As to `COc1cc2nccc(Oc3ccc(NC(=S)NC(=O)c4cc(C)ccc4C)cc3Cl)c2cc1OC` [Example 1017, N-{3-Chloro-4-[(6,7-dimethoxy-4-quinolyl)oxy]phenyl}-N′-(2,5-dimethylbenzoyl)thiourea], the IC50 is 48 nM.

Consider `COc1cc2nccc(Oc3ccc(NC(=S)NC(=O)N(CCCl)CCCl)cc3Cl)c2cc1OC` [Example 1049, N-{3-Chloro-4-[(6,7-dimethoxy-4-quinolyl)oxy]phenyl}-[{[di(2-chloroethyl)amino]carbonyl}amino]methanethioamide], for which the IC50 came to 44 nM.

Consider `COc1cc2nccc(Oc3ccc(NC(=S)NC(=O)c4ccc(C5CCCCC5)cc4)cc3)c2cc1OC` [Example 1124, N-(4-Cyclohexylbenzoyl)-N′-{4-[(6,7-dimethoxy-4-quinolyl)oxy]phenyl}thiourea], for which the half-maximal inhibitory concentration (IC50) is more than 100 nM. Further, under setting [2], the inhibition at 0.1 µM amounted to 22%.

Regarding `COc1cc2nccc(Oc3ccc(NC(=S)NC(=O)c4ccc(C5CCCCC5)cc4)cc3Cl)c2cc1OC` [Example 1127, N-{3-Chloro-4-[(6,7-dimethoxy-4-quinolyl)oxy]phenyl}-N′-(4-cyclohexylbenzoyl)thiourea], the IC50 was more than 100 nM. Under setting [2], the inhibition at 0.1 µM was determined as 8%.

In the case of `COc1cc2nccc(Oc3ccc(NC(=S)NC(=O)c4cc(C)cc(C)c4)cc3)c2cc1OC` [Example 1129, N-{4-[(6,7-Dimethoxy-4-quinolyl)oxy]phenyl}-N′-(3 5-dimethylbenzoyl)thiourea], the IC50 is more than 100 nM. Moreover, the inhibition at 0.1 µM under setting [2] was 48%.

Consider `CCN(C(=S)NC(=O)CCc1ccccc1OC)c1ccc(Oc2ccnc3cc(OC)c(OC)cc23)cc1` [Example 1142, N-{4-[(6,7-Dimethoxy-4-quinolyl)oxy]phenyl}-N-ethyl-N′-[3-(2-methoxyphenyl)propanoyl]thiourea], for which the IC50 stood at 80 nM.

As for `CCN(C(=S)NC(=O)C1CC1c1ccccc1)c1ccc(Oc2ccnc3cc(OC)c(OC)cc23)cc1` (centres unmarked) [Example 1143, N-{4-[(6,7-Dimethoxy-4-quinolyl)oxy]phenyl}-N-ethyl-N′-[(2-phenylcyclopropyl)carbonyl]thiourea], the IC50 was more than 100 nM. Moreover, the inhibition at 0.1 µM under setting [2] came to 32%.

In the case of `COc1cc2nccc(Oc3ccc(NC(=S)NC(=O)c4cccnc4)cc3)c2cc1OC` [Example 1152, N-{4-[(6,7-Dimethoxy-4-quinolyl)oxy]phenyl}-N′-(3-pyridylcarbonyl)thiourea], the IC50 is less than 10 nM.

Take `COc1cc2ncnc(Oc3ccc(NC(=S)NC(=O)c4ccccc4C(F)(F)F)cc3)c2cc1OC` [Example 1157, N-{4-[(6,7-Dimethoxy-4-quinazolinyl)oxy]phenyl}-N′-[2-(trifluoromethyl)benzoyl]thiourea]: the IC50 is less than 10 nM.
